{
  "source": "patent US9018236B2",
  "about": "“Cyclodextrin-based microemulsions, and dermatological uses thereof” (Precision Dermatology, Inc., priority 2012, dated 2015)",
  "key": {"[1]": {"test": "Solubility/dispersibility of retinol in the Labrasol-HPGCD-water microemulsion system", "assay_type": "physicochemical", "details": "final retinol concentration 1.2%; 15% Labrasol, 5% HPGCD in water", "source_text": "Any two components (examples: Labrasol®-water, HPXCD-water, or Labrasol®-HPXCD) were mixed (in different ratios) in different scintillation vials and then the third component was titrated to each vial until a clear-to-turbid or turbid-to-clear transition occurred (in simple situations). Finally wt % percentages data for each component (Labrasol®, water, and cyclodextrin) were plotted to construct the ternary phase diagram.\nCyclodextrin used: hydroxypropyl-X-cyclodextrin (X=alpha, beta, or gamma).\nDrug can be dissolved in the individual components or any of the two-component combination systems, followed by microemulsion formulation. Alternatively Drug can be directly added to the previously prepared microemulsion phase followed by shaking until a clear solution is achieved (when the achievable drug concentration is known previously)."}, "[2]": {"details": "cited from earlier work"}},
  "data": [
    {"smiles": "CC1=C(/C=C/C(C)=C/C=C/C(C)=C/CO)C(C)(C)CCC1", "note": "[Retinol]", "values": [
      {"measurement": "miscibility in Labrasol-HPGCD-water microemulsion system", "setting": "[1]", "value": "complete miscibility"},
      {"measurement": "miscibility in water", "setting": "[2]", "value": "immiscible"}
    ]}
  ]
}
